Read-outs that look alike come from different tables or passages of the source.
Target: T1, Zcchc11 enzyme (Homo sapiens, UniProt Q5TAX3)
T1 construct: made in house; host or cells: HEK293 cells (Zcchc11); E. coli Rosetta II (LIN28A)
T1 sequence (Q5TAX3 212-1420): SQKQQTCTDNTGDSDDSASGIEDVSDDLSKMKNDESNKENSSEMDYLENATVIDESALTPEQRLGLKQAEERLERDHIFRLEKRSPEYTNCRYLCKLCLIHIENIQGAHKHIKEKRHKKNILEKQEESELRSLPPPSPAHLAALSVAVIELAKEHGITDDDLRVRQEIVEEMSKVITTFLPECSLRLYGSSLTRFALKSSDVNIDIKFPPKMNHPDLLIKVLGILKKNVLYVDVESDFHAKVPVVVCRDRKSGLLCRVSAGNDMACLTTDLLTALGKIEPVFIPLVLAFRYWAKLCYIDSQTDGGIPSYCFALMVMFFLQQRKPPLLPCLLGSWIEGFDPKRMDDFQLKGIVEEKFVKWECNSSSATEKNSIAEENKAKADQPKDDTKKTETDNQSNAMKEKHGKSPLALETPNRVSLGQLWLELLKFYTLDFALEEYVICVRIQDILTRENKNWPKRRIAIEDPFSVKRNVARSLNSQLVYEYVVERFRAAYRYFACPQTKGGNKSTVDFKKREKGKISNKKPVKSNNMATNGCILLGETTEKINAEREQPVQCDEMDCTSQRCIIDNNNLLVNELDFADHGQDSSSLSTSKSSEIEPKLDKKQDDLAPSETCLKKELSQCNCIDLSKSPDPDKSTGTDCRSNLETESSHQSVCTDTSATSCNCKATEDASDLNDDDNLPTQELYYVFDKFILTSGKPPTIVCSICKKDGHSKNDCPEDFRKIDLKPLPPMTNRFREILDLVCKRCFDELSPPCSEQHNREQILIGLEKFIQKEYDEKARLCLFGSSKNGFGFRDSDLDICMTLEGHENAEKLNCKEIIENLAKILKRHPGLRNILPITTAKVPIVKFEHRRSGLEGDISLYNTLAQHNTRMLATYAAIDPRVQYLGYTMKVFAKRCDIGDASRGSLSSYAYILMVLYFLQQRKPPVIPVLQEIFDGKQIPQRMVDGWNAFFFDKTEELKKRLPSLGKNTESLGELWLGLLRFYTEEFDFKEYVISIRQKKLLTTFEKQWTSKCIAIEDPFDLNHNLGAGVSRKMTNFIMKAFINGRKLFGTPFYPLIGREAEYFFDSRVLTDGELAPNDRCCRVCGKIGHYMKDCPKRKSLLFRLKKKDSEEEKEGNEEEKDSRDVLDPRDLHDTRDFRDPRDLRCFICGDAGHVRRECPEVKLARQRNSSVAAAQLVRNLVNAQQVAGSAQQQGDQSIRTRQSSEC
Experiment: TUTase assay (Zcchc11 assay, Lin28a-dependent polyuridylation of pre-let-7)
Format: biochemical
Settings: read-out: Potency Lin28a-dep Z11 IC50
In short: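 HEK293-expressed human Zcchc11 (residues 212-1420, 0.2 nM) with 10 nM LIN28A and 2 nM 5′-fluorescein pre-let-7, preincubated 30 min at room temperature, pH 7.3. Started with 5 uM UTP; poly(U) tails quenched by 3′-rhodamine A20 probe, read kinetically. IC50 from early-rate four-parameter fit; no-UTP wells define 0%.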

[1] = Lin28a-dependent Zcchc11 (Z11) TUTase activity
[2] = Lin28a-dependent Zcchc11 (Z11) TUTase assay
[3] = LIN28A 10 nM, Zcchc11 0.2 nM, 5′-fluorescein pre-let-7 miRNA 2 nM, UTP 5 uM, room temperature, 30 minutes pre-incubation

IC50 [1] | IC50 [2] | Structure (SMILES) | further results
≤ 1 µM | – | COc1ccc(Cl)c(OC[C@H]2CC(c3cn[nH]c3)CN2c2cc3c(cc2F)c(=O)c(C(=O)O)cn3-c2ccc(N3CC(N(C)C)C3)nc2)n1 (stereo partly drawn) [Compound 352, 7-((2R)-2-(((3-chloro-6-methoxy-pyridin-2-yl)oxy)methyl)-4-(1H-pyrazol-4-yl)pyrrolidin-1-yl)-1-(6-(3-(dimethyl-amino)azetidin-1-yl)pyridin-3-yl)-6-fluoro-4-oxo-1,4-dihydro-quinoline-3-carboxylic acid compound with formic acid (1:1)] | –
– | ≤ 1 µM | O=C(O)c1cn(-c2ccc3c(c2)CS(=O)(=O)N3)c2cc(N3CCC[C@@H]3COc3ncccc3Cl)c(Cl)cc2c1=O [Example 621, (R)-6-chloro-7-(2-(((3-chloropyridin-2-yl)oxy)methyl)pyrrolidin-1-yl)-1-(2,2-dioxido-1,3-dihydrobenzo[c]isothiazol-5-yl)-4-oxo-1,4-dihydroquinoline-3-carboxylic acid] | –
– | ≤ 1 µM | Cn1ccnc1-n1cc(C(=O)O)c(=O)c2cc(Cl)c(N3CCC[C@@H]3COc3ncccc3Cl)cc21 [Example 568, (R)-6-chloro-7-(2-(((3-chloropyridin-2-yl)oxy)methyl)pyrrolidin-1-yl)-1-(1-methyl-1H-imidazol-2-yl)-4-oxo-1,4-dihydroquinoline-3-carboxylic acid] | –
≤ 1 µM | – | CN(C)C1CN(c2ccc(-n3cc(C(=O)O)c(=O)c4cc(Cl)c(N5CCC[C@@H]5COc5nc6c(cc5Cl)ncn6C)cc43)cn2)C1 (racemic) [Compound 274, rac-(R)-6-chloro-7-(2-(((6-chloro-3-methyl-3H-imidazo [4,5-b]pyridin-5-yl)oxy)methyl)pyrrolidin-1-yl)-1-(6-(3-(dimethyl-amino)azetidin-1-yl)pyridin-3-yl)-4-oxo-1,4-dihydro-quinoline-3-carboxylic acid] | –
– | – | CN(C)CCN1CCC(n2cc(C(=O)O)c(=O)c3cc(Cl)c(N4CCC[C@@H]4COc4ncccc4Cl)cc32)C1 (stereo partly drawn) [Example 39, 6-chloro-7-[(2R)-2-{[(3-chloropyridin-2-yl)oxy]methyl}pyrrolidin-1-yl]-1-{1-[2-(dimethylamino)ethyl]pyrrolidin-3-yl}-4-oxo-1,4-dihydroquinoline-3-carboxylic acid] | IC50 [3]: 10 to 50 µM
≤ 1 µM | – | NCCOc1cccnc1OC[C@H]1CCCN1c1cc2c(cc1Cl)c(=O)c(C(=O)O)cn2-c1ccc(Br)nc1 (racemic) [Compound 313, rac-(R)-7-(2-(((3-(2-aminoethoxy)pyridin-2-yl)oxy)methyl)pyrrolidin-1-yl)-1-(6-bromopyridin-3-yl)-6-chloro-4-oxo-1,4-dihydro-quinoline-3-carboxylic acid] | –
≤ 1 µM | – | COc1ccc(Cl)c(OCC2N(c3cc4c(cc3Cl)c(=O)c(C(=O)O)cn4-c3cnnc(N)c3)CCC2(C)C)n1 (centres unmarked) [Compound 228, 1-(6-Amino-pyridazin-4-yl)-6-chloro-7-(2-(((3-chloro-6-methoxy-pyridin-2-yl)oxy)methyl)-3,3-dimethyl-pyrrolidin-1-yl)-4-oxo-1,4-dihydro-quinoline-3-carboxylic acid] | –
≤ 1 µM | – | CN1CC(n2cc(-n3cc(C(=O)O)c(=O)c4cc(Cl)c(N5CCC[C@@H]5COc5ncccc5Cl)cc43)cn2)C1 (racemic) [Compound 175, rac-(R)-6-chloro-7-(2-(((3-chloropyridin-2-yl)oxy)methyl)pyrrolidin-1-yl)-1-(1-(1-methylazetidin-3-yl)-1H-pyrazol-4-yl)-4-oxo-1,4-dihydro-quinoline-3-carboxylic acid] | –
– | ≤ 1 µM | Cc1cc2c(=O)c(C(=O)O)cn(-c3ccc(N4CC(N(C)C)C4)nc3)c2cc1N1CCC[C@@H]1COc1ncccc1Cl [Example 533, (R)-7-(2-(((3-chloropyridin-2-yl)oxy)methyl)pyrrolidin-1-yl)-1-(6-(3-(dimethylamino)azetidin-1-yl)pyridin-3-yl)-6-methyl-4-oxo-1,4-dihydroquinoline-3-carboxylic acid] | –
– | ≤ 1 µM | CN(C)C1CN(c2ccc(-n3cc(C(=O)O)c(=O)c4cc(Cl)c(N5CCC[C@H]5COc5ncccc5Cl)cc43)cn2)C1 [Example 666, (S)-6-chloro-7-(2-(((3-chloropyridin-2-yl)oxy)methyl)pyrrolidin-1-yl)-1-(6-(3-(dimethylamino)azetidin-1-yl)pyridin-3-yl)-4-oxo-1,4-dihydroquinoline-3-carboxylic acid] | –
– | ≤ 1 µM | Cc1cc2c(=O)c(C(=O)O)cn(-c3ccc(N4CC(N(C)C)C4)nc3)c2nc1N1CCC[C@@H]1COc1ncccc1Cl [Example 633, (R)-7-(2-(((3-chloropyridin-2-yl)oxy)methyl)pyrrolidin-1-yl)-1-(6-(3-(dimethylamino)azetidin-1-yl)pyridin-3-yl)-6-methyl-4-oxo-1,4-dihydro-1,8-naphthyridine-3-carboxylic acid] | –
≤ 1 µM | – | COc1ccc(-n2cc(C(=O)O)c(=O)c3cc(F)c(N4CCC[C@@H]4COc4ccccn4)cc32)cc1 [Compound 147, (R)-6-fluoro-1-(4-methoxy-phenyl)-4-oxo-7-(2-((pyridin-2-yloxy)methyl)pyrrolidin-1-yl)-1,4-dihydro-quinoline-3-carboxylic acid] | –
– | ≤ 1 µM | O=C(O)c1cn(-c2ccnc(N3CCC3)c2)c2nc(N3CCC[C@@H]3COc3ncccc3Cl)c(Cl)cc2c1=O [Example 543, (R)-1-(2-(azetidin-1-yl)pyridin-4-yl)-6-chloro-7-(2-(((3-chloropyridin-2-yl)oxy)methyl)pyrrolidin-1-yl)-4-oxo-1,4-dihydro-1,8-naphthyridine-3-carboxylic acid] | –
≤ 1 µM | – | Cc1ccc(Cl)c(OC[C@H]2C[C@H]3C[C@H]3N2c2cc3c(cc2F)c(=O)c(C(=O)O)cn3-c2ccc(N(C)C)nc2)n1 [Compound 309] | –
– | ≤ 1 µM | COc1cnc(OC[C@H]2CC3CC3N2c2cc3c(cc2Cl)c(=O)c(C(=O)O)cn3-c2ccnc(N)c2)c(Cl)c1 (stereo partly drawn) [Example 653, 1-(2-aminopyridin-4-yl)-6-chloro-7-((3R)-3-(((3-chloro-5-methoxypyridin-2-yl)oxy)methyl)-2-azabicyclo[3.1.0]hexan-2-yl)-4-oxo-1,4-dihydroquinoline-3-carboxylic acid] | –
– | ≤ 1 µM | O=C(O)c1cn(-c2ccnc(N3CCC3)c2)c2cc(N3CCC[C@@H]3COc3ncccc3Cl)c(Cl)cc2c1=O [Example 554, (R)-1-(2-(azetidin-1-yl)pyridin-4-yl)-6-chloro-7-(2-(((3-chloropyridin-2-yl)oxy)methyl)pyrrolidin-1-yl)-4-oxo-1,4-dihydroquinoline-3-carboxylic acid] | –
– | – | CN(C)C1CN(c2ccc(-n3cc(C(=O)O)c(=O)c4cc(Cl)c(N5CC6(CCC6)CC5COc5ncccc5Cl)cc43)cn2)C1 (centres unmarked) [Example 57, 6-Chloro-7-(7-(((3-chloropyridin-2-yl)oxy)methyl)-6-azaspiro[3.4]octan-6-yl)-1-(6-(3-(dimethylamino)azetidin-1-yl)pyridin-3-yl)-4-oxo-1,4-dihydroquinoline-3-carboxylic acid] | IC50 [3]: ≤ 1 µM
– | – | O=C(O)c1cn(-c2cnccn2)c2cc(N3C[C@@H](F)C[C@H]3COc3ncccc3Cl)c(Cl)cc2c1=O [Example 77, 6-chloro-7-[(2S,4S)-2-{[(3-chloropyridin-2-yl)oxy]methyl}-4-fluoropyrrolidin-1-yl]-4-oxo-1-(pyrazin-2-yl)-1,4-dihydroquinoline-3-carboxylic acid] | IC50 [3]: ≤ 1 µM
1 to 10 µM | – | O=C(O)c1cn(-c2ccc(O)cc2F)c2cc(N3CCC[C@@H]3COc3ccncn3)c(F)cc2c1=O [Compound 136, (R)-6-fluoro-1-(2-fluoro-4-hydroxy-phenyl)-4-oxo-7-(2-((pyrimidin-4-yloxy)methyl)pyrrolidin-1-yl)-1,4-dihydro-quinoline-3-carboxylic acid] | –
– | ≤ 1 µM | CN(C)C1CN(c2ccc(-n3cc(C(=O)O)c(=O)c4cc(F)c(N5CCC[C@@H]5COc5ncccc5Cl)c(F)c43)cn2)C1 [Example 613] | –

Source: patent US12662491B2 (Redona Therapeutics, Inc., priority 2020, dated 2026)
